Measurements taken from patent US10969382B2, “Systems and methods for assessing data collected from an electrically active cell culture” (Axion BioSystems, Inc., priority 2015, dated 2021).
Entries after “also recorded” stand apart in the source; their conditions may differ.

System: cardiomyocyte culture
Assay: Global conduction velocity (GCV) of beat propagation measured on a microelectrode array
Format: cell-based
Conditions: increasing flecainide concentration; FIG. 8C
From the text: example, within 30 ms). FIG. 6A is a representation of an array of electrodes 22 of an exemplary well of a MEA 20 having electrodes 22 spaced 200 μm from one another in the vertical and horizontal directions. It is to be appreciated that the number of electrodes 22 and the spacing shown in FIG. 6A are for example purposes only and greater or fewer electrodes 22 can be used and the spacing can also differ from what is shown. […] The beat timestamps, or arrival times, on the neighboring beat receiving electrodes can be used to generate a data array of delay times, as shown in Table 1. […] For the exemplary beat shown in Table 1, the beat starting electrode 30 is represented by the data point in column 1, row 2. The delay time (tdi) at each electrode 22 is the difference between the beat arrival time (ti) on that particular beat receiving electrode 22 and the beat start time, to, at the beat starting electrode 30. tdi=ti−t0 The velocity at which a beat propagates through the cellular network, or the conduction velocity, is a useful parameter for assessing a cardiomyocyte culture. However, the conduction velocity can vary depending upon the location within the cell culture, and thus it is another example of a parameter that is subject to spatial variability. […]

O=C(NCC1CCCCN1)c1cc(OCC(F)(F)F)ccc1OCC(F)(F)F (stereo not shown) [flecainide]
conduction velocity using the GCV method: systematically reduced; also recorded: slows
